Experiments:
[1] = In vivo distribution of tritiated radioligand in pancreas; conditions: in vivo, iv
Method: (§1) Animals were euthanized at various times (15 min to 2 hr), and organs of interest removed for assay. Biopsy samples were counted in an autogamma counter (50% counting efficiency) for ^123 I labeled radioligand. For the tritiated radioligand, in rats and rabbits, 10 to 50 mg samples of pancreas and, in rats, several regions of CNS (cortex, interpeduncular nucleus, and substantial nigra) were solubilized in protosol® (New England Nuclear). Liquid scintillation cocktail was added and the samples were dark adapted for 16 hours, then counted in a liquid scintillation counter with automatic quench correction. Results were the average of at least five animals and were expressed as % dose/g (wet weight).

CCK-A receptors [2] = test: as above; conditions: pancreas, tritiated radioligand
Method: as §1

CCK-A receptors [3] = test: In vivo distribution after coinjection of unlabeled carboxamide (receptor-mediated binding); parameters: species or system rats; conditions: coinjection 0.4 mg/kg, rat pancreas (Table 3)
Method: Animals were euthanized at various times (15 min to 2 hr), and organs of interest removed for assay. […] […] Liquid scintillation cocktail was added and the samples were dark adapted for 16 hours, then counted in a liquid scintillation counter with automatic quench correction. Results were the average of at least five animals and were expressed as % dose/g (wet weight).

CCK-A receptors [4] = conditions: mice, ^3 H and ^11 C labeled, high specific activity, 4 hours post intravenous injection; cited from earlier work
[5] = mice; cited from earlier work
[6] = cited from earlier work

## CN1C(=O)C(NC(=O)c2cc3ccccc3[nH]2)N=C(c2ccccc2)c2ccccc21 (stereo in doubt) [[^3 H](R)-N-(2,3-dihydro-1-methyl-2-oxo-5-phenyl-1H-1,4-benzodiazepin-3-yl)-1H-indole-2-carboxamide]
[1]; 1 mg/kg
  tissue uptake: 0.25 %ID/g
[1]; 10 uCi
  tissue uptake: 2.1 %ID/g
CCK-A receptors [2]
  receptor-mediated part of localization in the pancreas: 90%

## CN1C(=O)[C@H](NC(=O)c2cc3ccccc3[nH]2)N=C(c2ccccc2)c2ccccc21 [(R)-N-(2,3-dihydro-1-methyl-2-oxo-5-phenyl-1H-1,4-benzodiazepin-3-yl) -1H-indole-2-carboxamide, reference compound]
CCK-A receptors [3]
  reduction of localization (of the [^123 I] radioligand in rat pancreas) by coinjection: 60-70%

## CN1C(=O)[C@@H](NC(=O)c2cc3ccccc3[nH]2)N=C(c2ccccc2)c2ccccc21 [N-(2,3 Dihydro-1-methyl-2-oxo-5-phenyl-1H-1,4-benzodiazepine-3-yl) -1H-indole-2-carboxamide]
CCK-A receptors [4]
  localization in the pancreas: 76 % dose/gram

## Cc1cc([131I])cc(CN(C)CCCN(C)C)c1O [[^131 I]HIPDM, [^131 I]N, N, N'-trimethyl-N'-(2-hydroxy-3-methyl-5-iodobenzyl)-1,3-propanediamine]
[5]
  localization in the pancreas: localizes in the pancreas

## C[75Se]CC[C@H](N)C(=O)O [^75 Se-selenomethionine]
[6]; in vivo
  biological clearance: slow biological clearance
  tracer localizing in the pancreas: 5-7%
[6]; primarily the liver
  uptake in adjacent organs: high uptake in adjacent organs, primarily the liver

Source: patent US4994258A, “Gamma emitting, CCK-A antagonists for pancreatic imaging” (Merck & Co., Inc., priority 1990, dated 1991)
